Assay results published in paper PMC10771590, “Pathway crosstalk between the central metabolic and heme biosynthetic pathways in Phanerochaete chrysosporium” (Applied Microbiology and Biotechnology, 2024).
Read-outs that look alike come from different tables or passages of the source.

How the values were obtained:
[1] = system: Glyceraldehyde 3-phosphate dehydrogenase (GAPDH) of Plasmodium falciparum; design: method as in Campanale et al. 2003; settings: ref Campanale et al. 2003; cited from earlier work
[2] = target: T1, rPcCS (mitochondrial citrate synthase) (Phanerodontia chrysosporium, UniProt Q0EAA7); assay: CS assay (DTNB method) and steady-state kinetic analysis; type: biochemical, Phanerochaete chrysosporium; settings: for Ki: 0–2.5 μM hemin
T1 sequence (Q0EAA7 1-446): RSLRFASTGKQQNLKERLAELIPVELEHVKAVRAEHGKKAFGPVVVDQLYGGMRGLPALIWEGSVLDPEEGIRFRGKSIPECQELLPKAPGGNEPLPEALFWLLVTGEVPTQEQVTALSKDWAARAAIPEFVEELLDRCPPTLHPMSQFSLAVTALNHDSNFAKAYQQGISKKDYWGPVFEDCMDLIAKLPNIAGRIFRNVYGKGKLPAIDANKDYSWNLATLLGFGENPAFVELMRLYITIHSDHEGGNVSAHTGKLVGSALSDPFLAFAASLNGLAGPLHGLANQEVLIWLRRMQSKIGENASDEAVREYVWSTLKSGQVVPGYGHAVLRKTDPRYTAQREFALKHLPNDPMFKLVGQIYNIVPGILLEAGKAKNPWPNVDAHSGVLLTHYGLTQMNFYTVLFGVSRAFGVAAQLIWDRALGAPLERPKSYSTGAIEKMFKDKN
Method: CS was assayed by the 5, 5′-dithiobis-2-nitrobenzoic acid (DTNB) method, as described previously (Srere et al. [1963]). […] CS catalyzes the reaction of OAA with AcCoA, generating citrate and CoA. Thus, reactions were monitored by the amount of released CoA, which was followed at 412 nm (ε 13 600 M^–1cm^–1) by the formation of 2-nitro-5-mercaptobenzoic acid, via the reaction of CoA with DTNB. Reactions were monitored for 1 min, and initial velocity was determined. […] Inhibition studies were carried out in the presence of 0–2.5 μM hemin as described above. Kinetic parameters were determined from Lineweaver–Burk plots, and Ki values were determined from the secondary plot of the slopes of the Lineweaver–Burk plots. Hemin and OAA solutions were prepared immediately prior to use.
(§1) Fig. 5 Inhibitory effect of hemin on PcCS reaction. […] Reaction mixtures contained 1.5 nM rPcCS, 40 mM Tris-HCl (pH 8.5), and 120 μM DTNB. Fixed substrate was added at 12 μM and variable substrate at 3–12 μM. […] Insets: secondary plots of each slope of Lineweaver–Burk plots against the concentration of hemin for determining inhibition constants.

pig CS = target: T2, pig CS (Sus scrofa, UniProt P00889); assay: Inhibitory effect of hemin on pig CS (SsCS) reaction; type: biochemical; settings: 0–5.7 µM hemin, incubated 0 or 60 min at 4 °C (Supplemental Fig. S2)
T2 sequence (P00889 28-464): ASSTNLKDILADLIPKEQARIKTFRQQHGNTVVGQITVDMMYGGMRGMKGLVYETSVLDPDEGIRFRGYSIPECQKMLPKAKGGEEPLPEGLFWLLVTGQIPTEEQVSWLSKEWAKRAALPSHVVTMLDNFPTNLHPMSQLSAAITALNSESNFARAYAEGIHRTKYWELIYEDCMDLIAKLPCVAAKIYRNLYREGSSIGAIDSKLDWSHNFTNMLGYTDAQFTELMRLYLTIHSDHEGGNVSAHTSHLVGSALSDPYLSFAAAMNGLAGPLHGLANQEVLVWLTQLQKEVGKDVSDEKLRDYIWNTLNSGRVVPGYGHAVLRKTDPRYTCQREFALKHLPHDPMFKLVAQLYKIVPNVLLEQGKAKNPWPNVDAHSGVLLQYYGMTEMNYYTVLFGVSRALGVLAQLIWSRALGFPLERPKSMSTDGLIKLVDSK
Description: One heme-responsive-motif (HRM) was found in PcCS, which could be a possible heme-binding site (Lathrop and Timko [1993]; Zhang and Guarente [1995]; Ishikawa et al. [2005]; Yamanaka et al. [2003]). From the alignment analysis, only certain fungi contain HRM (CP motif) in their CSs (Supplemental Fig. S1). No mammalian CS contains HRM (Supplemental Fig. S1). […] Furthermore, the His residue corresponding to His^347 in PcCS was conserved in either mammalian or fungal CSs. Combining all the data, the heme-binding site is concluded to be His^347 of PcCS.
Concentration of hemin (nM)
Figure S2 Inhibitory effect of hemin on SsCS reaction. Reaction mixtures containing
1.5 nM SsCS, 40 mM Tris/HCl (pH 8.5) and 0, 0.5, 1.2 and 5.7 µM hemin were incubated […]

rPcCS = target: T3, rPcCS (Phanerodontia chrysosporium, UniProt Q0EAA7); assay: Heme-derived time-dependent inhibition of PcCS; type: biochemical, Phanerochaete chrysosporium; settings: 30-min preincubation of PcCS with hemin at 4 °C; read-out: half-maximal inhibitory concentration (IC50)
T3 sequence (Q0EAA7 1-446): T1 sequence (Q0EAA7 1-446)
Method: Therefore, the data were expressed as relative values against the controls. When 5.7 μM hemin was used, citrate formed was determined by HPLC because of spectroscopic interference with the Soret absorption. All experiments were repeated at least three times, and standard deviations were within 5% in each plot.
as §1

Structure (SMILES): C=CC1=C(C)c2cc3[nH]c(cc4nc(cc5[nH]c(cc1n2)c(C)c5CCC(=O)O)C(CCC(=O)O)=C4C)c(C)c3C=C.[Fe+3] [hemin]
- Ki [1]: 0.2 µM
- inhibitory effect relative to reported inhibitors of other eukaryotic CSs ([2]; hemin on PcCS versus inhibition constants larger than 0.1 mM): 10 times
- mode of inhibition for AcCoA ([2]; rPcCS, double-reciprocal plots): competitive inhibitor
- mode of inhibition for OAA ([2]; rPcCS, double-reciprocal plots): non-competitive inhibitor
- Ki ([2]; read-out: Ki AcCoA, rPcCS, pH 8.5, AcCoA as variable substrate): 5.8 µM
- Ki ([2]; read-out: Ki OAA, rPcCS, pH 8.5, OAA as variable substrate): 8.7 µM
- effect on pig CS activity (pig CS): inhibited
- IC50 (rPcCS): 1 µM
